Experimental data taken from PubChem BioAssay AID256 (DTP/NCI, 2004).
Inconclusive results and toxic doses are left out. How the source made its calls: active means survival T/C of 150% or more; inactive means T/C below 125% in these data.

System: CD2F1 mice, L1210 leukemia ip, survival T/C
Experiment: NCI In Vivo Anticancer Drug Screen. Data for tumor model L1210 Leukemia (intraperitoneal) in CD2F1 (CDF1) mice
Details: endpoint: mean survival time, higher = longer survival
Outline: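 Activity against a transplanted murine tumor was judged by comparing the compound group with a vehicle group. The outcome in the treated animals was divided by that in the controls.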

[1] = dose: 100.0 mg/kg/injection, schedule: Q01DX009 (ip), vehicle: saline with Tween-80
[2] = dose: 100.0 mg/kg/injection, schedule: Q04DX003 (ip), vehicle: saline with Tween-80
[3] = dose: 200.0 mg/kg/injection, schedule: Q01DX009 (ip), vehicle: saline with Tween-80
[4] = dose: 200.0 mg/kg/injection, schedule: Q04DX003 (ip), vehicle: saline with Tween-80
[5] = dose: 400.0 mg/kg/injection, schedule: Q04DX003 (ip), vehicle: saline with Tween-80
[6] = dose: 100.0 mg/kg/injection, schedule: Q04DX003 (ip), vehicle: saline
[7] = dose: 200.0 mg/kg/injection, schedule: Q04DX003 (ip), vehicle: saline
[8] = dose: 400.0 mg/kg/injection, schedule: Q04DX003 (ip), vehicle: saline
[9] = dose: 25.0 mg/kg/injection, schedule: Q04DX002 (ip), vehicle: saline with Tween-80

Measured: T/C

NNC(=O)c1cccc(C(=O)NN)c1
inactive: [1] 96 % of control | [2] 93 % of control | [3] 93 % of control | [4] 95 % of control | dose: 400.0 mg/kg/injection, schedule: Q01DX009 (ip), vehicle: saline with Tween-80 98 % of control | [5] 92 % of control

OCCN1CCOCC1
inactive: dose: 100.0 mg/kg/injection, schedule: Q01DX009 (ip), vehicle: saline 103 % of control | [6] 98 % of control | dose: 200.0 mg/kg/injection, schedule: Q01DX009 (ip), vehicle: saline 102 % of control | [7] 95 % of control | dose: 400.0 mg/kg/injection, schedule: Q01DX009 (ip), vehicle: saline 103 % of control | [8] 97 % of control

[NH-]CC[NH-].[NH-]CC[NH-].[NH-]CC[NH-].[Ni+2].[O-][Cl+3]([O-])([O-])O
inactive: [9] 117 % of control | dose: 50.0 mg/kg/injection, schedule: Q04DX002 (ip), vehicle: saline with Tween-80 92 % of control

Cc1cc2oc(=O)c(Cl)c(NCCO)c2c(C)c1Cl
inactive: dose: 100.0 mg/kg/injection, schedule: Q01DX001 (ip), vehicle: saline with Tween-80 98 % of control | dose: 200.0 mg/kg/injection, schedule: Q01DX001 (ip), vehicle: saline with Tween-80 98 % of control | dose: 400.0 mg/kg/injection, schedule: Q01DX001 (ip), vehicle: saline with Tween-80 93 % of control

CC1(O)CC2CCCC1C2 (centres undefined)
inactive: [2] 93 % of control | [4] 90 % of control | [5] 93 % of control

C[CH2][Sn](/[CH]=C/C=C/OC)([CH2]C)[CH2]C
inactive: dose: 0.04 mg/kg/injection, schedule: Q01DX009 (ip), vehicle: saline 101 % of control | dose: 0.09 mg/kg/injection, schedule: Q01DX009 (ip), vehicle: saline 101 % of control

COC(=O)c1cccc(I)c1
inactive: dose: 100.0 mg/kg/injection, schedule: Q04DX002 (ip), vehicle: saline with Tween-80 100 % of control | dose: 200.0 mg/kg/injection, schedule: Q04DX002 (ip), vehicle: saline with Tween-80 100 % of control | dose: 400.0 mg/kg/injection, schedule: Q04DX002 (ip), vehicle: saline with Tween-80 96 % of control

C=C[CH2][Sn]([Br])([c]1ccccc1)[c]1ccccc1
inactive: dose: 6.25 mg/kg/injection, schedule: Q01DX009 (ip), vehicle: saline with Tween-80 94 % of control | [9] 89 % of control

CC/C=C(CC)\C(=C\CC)CC
inactive: dose: 50.0 mg/kg/injection, schedule: Q01DX009 (ip), vehicle: saline with Tween-80 100 % of control | [1] 100 % of control | [3] 107 % of control

CC1=CC(c2ccccc2)=CC(C)(C)C1 (tested in a mixture with another compound)
inactive: dose: 25.0 mg/kg/injection, schedule: Q01DX009 (ip), vehicle: saline sonified 95 % of control | dose: 50.0 mg/kg/injection, schedule: Q01DX009 (ip), vehicle: saline sonified 103 % of control | dose: 100.0 mg/kg/injection, schedule: Q01DX009 (ip), vehicle: saline sonified 103 % of control | [2] 94 % of control

OCc1cn2c(c1CO)CCC2
inactive: dose: 12.5 mg/kg/injection, schedule: Q01DX009 (ip), vehicle: water 105 % of control | dose: 22.0 mg/kg/injection, schedule: Q01DX009 (ip), vehicle: other 108 % of control | dose: 25.0 mg/kg/injection, schedule: Q01DX009 (ip), vehicle: water 113 % of control | dose: 33.0 mg/kg/injection, schedule: Q01DX009 (ip), vehicle: other 113 % of control | dose: 50.0 mg/kg/injection, schedule: Q01DX009 (ip), vehicle: other 123 % of control | dose: 75.0 mg/kg/injection, schedule: Q01DX009 (ip), vehicle: other 105 % of control

COc1ccc(OC)c(/C=N/N=C/c2cc(OC)ccc2OC)c1
inactive: [2] 106 % of control | [4] 94 % of control | [5] 94 % of control

CNC(=S)N(C1CCCCC1)C1CCCCC1
inactive: [2] 111 % of control | [4] 96 % of control | [5] 94 % of control

CC12CCc3c(ccc4cc(O)ccc34)C1CCC2=O (centres undefined)
inactive: [6] 100 % of control | [7] 97 % of control | [8] 97 % of control
